Assay: Stability test for crystals under accelerated conditions (light, high temperature, high humidity)
Type: physicochemical
Conditions: light 5000 Lx±500 Lx; high temperature 60° C.±2° C.; high humidity 75% RH±5% RH; samples taken on the 5th, 10th and 30th day
Method: The stability of the crystal according to the disclosure may be detected by placing the crystal in a high temperature, a high humidity, or a lighting condition. 40-60° C. may be selected for the high temperature, the relative humidity of 75%-92.5% RH may be selected for the high humidity condition, and 5000 Lux may be selected for the lighting condition. The crystal stability may be evaluated by investigating a plurality of data, such as content, total content of impurities, or water content, of the sample, and comprehensively evaluating the parameters according to the properties of the product.
The stability of the crystal according to the disclosure was investigated under accelerated test conditions according to the Guiding Principles for Stability Test of Crude Drugs and Pharmaceutical Preparations. The stabilities of the crystals obtained in Examples 1-8 were tested in a light environment at 5000 Lx±500 Lx, a high temperature environment at 60° C.±2° C., and a high humidity environment at 75% RH±5% RH, respectively. Samples were taken on the 5th day, the 10th day, and the 30th day, respectively, and the appearance properties, moisture contents, and total impurities of related substances of the samples were recorded for comparison with the initial data.

stability (appearance properties, moisture contents, total impurities of related substances compared with the initial data): better stability
Structure (SMILES): C=CC(=O)Nc1cc(Nc2nccc(-c3cn(CC(F)(F)F)c4ccccc34)n2)c(OC)cc1N(C)CCN(C)C [Example 3]
